Laboratory results as given in US20250255889A1, “METHODS FOR TREATMENT SELECTION FOR CHRONIC LYMPHOCYTIC LEUKEMIA (CLL)” (The Broad Institute, Inc., priority 2022, published 2025).

What was measured:
[1] = test system: primary CLL samples (CD19+ and CD5+ cells); assay: High-throughput dynamic BH3 profiling (HT-DBP): drug-induced apoptotic priming (delta priming), cytochrome c release after BH3 peptide; type: cell-based, human; conditions: for priming in CLL groups: CLL sample groups compared with normal PBMCs; for drug-induced apoptotic priming: across CLL subtypes, 65 primary CLL samples, 20 hours drug
How it was run: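 Primary CLL cells (CD19+/CD5+) are treated with the agent or DMSO carrier, then briefly exposed to a fixed concentration of a promiscuous BH3 peptide such as BIM. Mitochondrial cytochrome c release serves as the priming surrogate. Delta priming is drug-treated priming minus DMSO-treated priming, run in high-throughput format.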

[2] = test system: healthy PBMCs (normal cell types CD14, CD19, CD3); assay: HT-DBP delta priming in healthy donor normal cells; type: cell-based, human; conditions: normal peripheral blood mononuclear cells
Protocol: FIG. 17 provides a heatmap showing median delta priming across healthy donors for the indicated normal cell types (CD14, CD19, and CD3).
The assay was robust, as indicated by an 0.92 median Pearson correlation across replicates (FIGS. 5A, 5B, 6A, and 6B). Additionally, the majority of drugs had greater effect on CLL samples than on healthy PBMCs (p<0.001, paired t-test), supporting their specificity (FIGS. 7A-7C).
Delta-priming was measured for the molecular features listed along the top of FIGS. 14, 17, and 32 using the HT-DBP screen. The molecular features included IGHV subtypes, epitypes, expression subtypes (i.e., expression clusters), mutations in driver genes, and recurrent copy-number events. A feature was included in the heatmap of FIG. 14 only if at least 2 patients in a DBP screen had the feature. Median delta-priming was computed across all BH3 peptides and across all patients within the feature. […] Plots showing molecular features for groups of 65 and 81 patients were also compiled (see FIGS. 19, 20).

[3] = peptide BAD 0.3 uM, feature EC-m3
[4] = peptide MS1 2.5 uM, feature gain_16p11.2
[5] = peptide PUMA 1 uM, feature EC-m2
[6] = peptide PUMA 1 uM, feature loss_6q21

For `CC1(C)CCC(c2ccc(Cl)cc2)=C(CN2CCN(c3ccc(C(=O)NS(=O)(=O)c4ccc(N[C@H](CCN5CCOCC5)CSc5ccccc5)c(S(=O)(=O)C(F)(F)F)c4)cc3)CC2)C1` [Navitoclax, navitoclax], the “priming in CLL groups” value [1] was “potentially therapeutically relevant priming”, the “drug-induced apoptotic priming by expression cluster” value ([1]; EC-i) was “more sensitive to navitoclax than any other drug” and the “drug-induced apoptotic priming by expression cluster” value ([1]; EC-u2 (U-CLL)) was “most sensitive”. For the same compound, the direction ([1]; Feature EC-m2) was “Resistant”, the direction ([1]; Feature M-CLL) was “Sensitive” and the direction ([1]; Feature U-CLL) was “Resistant”. For the same compound, the direction ([1]; Feature n-CLL) was “Resistant”, the drug-induced apoptotic priming [1] was “high priming” and the direction [1, 3] was “Sensitive”. For the same compound, the direction ([1]; peptide BAD 0.3 uM, feature EC-u1) was “Resistant”, the direction ([1]; peptide BAD 0.3 uM, feature M-CLL) was “Sensitive” and the direction ([1]; peptide BAD 0.3 uM, feature U-CLL) was “Resistant”. For the same compound, the direction ([1]; peptide BAD 0.3 uM, feature loss_3p21.31) was “Sensitive”, the direction ([1]; peptide BAD 0.3 uM, feature loss_5p15.33) was “Sensitive” and the direction ([1]; peptide BAD 0.3 uM, feature loss_7q36.1) was “Sensitive”. The direction ([1]; peptide BAD 0.3 uM, feature loss_8p) was “Sensitive”, the direction ([1]; peptide BAD 0.3 uM, feature loss_12p13.31a) was “Sensitive” and the direction ([1]; peptide BAD 0.3 uM, feature loss_14q32.12) was “Sensitive”. For the same compound, the direction ([1]; peptide BAD 0.3 uM, feature loss_17p13.3) was “Sensitive”, the direction ([1]; peptide BAD 0.3 uM, feature n-CLL) was “Resistant” and the direction ([1]; peptide BIM 0.01 uM, feature loss_3p21.31) was “Sensitive”. The direction ([1]; peptide BIM 0.01 uM, feature loss_7q36.1) was “Sensitive”, the direction ([1]; peptide BIM 0.01 uM, feature loss_8p) was “Sensitive” and the direction ([1]; peptide BIM 0.01 uM, feature loss_14q32.12) was “Sensitive”. The direction ([1]; peptide MS1 2.5 uM, feature MYD88) was “Sensitive”, the direction [1, 4] was “Sensitive” and the direction ([1]; peptide MS1 2.5 uM, feature loss_3p21.31) was “Sensitive”. The direction ([1]; peptide MS1 2.5 uM, feature loss_7q36.1) was “Sensitive”, the direction ([1]; peptide MS1 2.5 uM, feature loss_8p) was “Sensitive” and the direction ([1]; peptide MS1 2.5 uM, feature loss_14q32.12) was “Sensitive”. The direction [1, 5] was “Resistant”, the direction ([1]; peptide PUMA 1 uM, feature EC-m4) was “Sensitive” and the direction [1, 6] was “Resistant”. The direction ([1]; peptide PUMA 1 uM, feature loss_14q32.12) was “Sensitive” and the “priming response in normal cell groups” value [2] was “minimal priming response”.
`CC1(C)CCC(CN2CCN(c3ccc(C(=O)NS(=O)(=O)c4ccc(NCC5CCOCC5)c([N+](=O)[O-])c4)c(Oc4cnc5[nH]ccc5c4)c3)CC2)=C(c2ccc(Cl)cc2)C1` [Venetoclax, venetoclax] was tested, and the “priming in CLL groups” value [1] was “potentially therapeutically relevant priming”, the “drug-induced apoptotic priming by expression cluster” value ([1]; EC-m2, within M-CLL ECs) was “least effective” and the “drug-induced apoptotic priming by expression cluster” value ([1]; EC-m3, within M-CLL ECs) was “most effective”. For the same compound, the direction ([1]; Feature EC-m2) was “Resistant”, the direction ([1]; Feature loss_13q14.3) was “Sensitive” and the drug-induced apoptotic priming [1] was “highly effective”. The “positive delta priming values (rank among drugs)” value ([1]; across all evaluated BH3 peptides, 42 drugs) was “top-ten drugs with the highest positive delta priming values”, the “delta priming value of combined treatment” value ([1]; combined with MS1 peptide (MCL1 inhibitor), relative to alternative treatments) was “increased delta priming value” and the direction [1, 3] was “Sensitive”. For the same compound, the direction ([1]; peptide BAD 0.3 uM, feature loss_13q14.3) was “Sensitive”, the direction ([1]; peptide BIM 0.01 uM, feature SAMHD1) was “Sensitive” and the direction ([1]; peptide MS1 2.5 uM, feature POT1) was “Sensitive”. The direction [1, 4] was “Sensitive”, the direction ([1]; peptide MS1 2.5 uM, feature loss_13q14.13) was “Sensitive” and the direction [1, 5] was “Resistant”. For the same compound, the direction [1, 6] was “Resistant” and the “priming response in normal cell groups” value [2] was “minimal priming response”.
